Measurements published in US20230125667A1, “NOVEL TDZD ANALOGS AS AGENTS THAT DELAY, PREVENT, OR REVERSE AGE-ASSOCIATED DISEASES AND AS ANTI-CANCER AND ANTILEUKEMIC AGENTS” (United States Government as represented by the Department …, priority 2020, published 2023).
Read-outs that look alike come from different tables or passages of the source.

How the values were obtained:
CCRF-CEM = assay: NCI-60 growth inhibition: CCRF-CEM (Leukemia); type: cell-based, human; conditions: Homo sapiens
K-562 = assay: NCI-60 growth inhibition: K-562 (Leukemia); type: cell-based, human; conditions: Homo sapiens, K562
MOLT-4 = assay: NCI-60 growth inhibition: MOLT-4 (Leukemia); type: cell-based, human; conditions: Homo sapiens
RPMI-8226 = assay: NCI-60 growth inhibition: RPMI-8226 (Leukemia); type: cell-based, human; conditions: Homo sapiens
EKVX = assay: NCI-60 growth inhibition: EKVX (Non-Small-Cell Lung Cancer); type: cell-based, human; conditions: Homo sapiens
HOP-92 = assay: NCI-60 growth inhibition: HOP-92 (Non-Small-Cell Lung Cancer); type: cell-based, human; conditions: Homo sapiens
NCI-H23 = assay: NCI-60 growth inhibition: NCI-H23 (Non-Small-Cell Lung Cancer); type: cell-based, human; conditions: Homo sapiens
NCI-H460 = assay: NCI-60 growth inhibition: NCI-H460 (Non-Small-Cell Lung Cancer); type: cell-based, human; conditions: Homo sapiens
COLO 205 = assay: NCI-60 growth inhibition: COLO 205 (Colon Cancer); type: cell-based, human; conditions: Homo sapiens
HCT-15 = assay: NCI-60 growth inhibition: HCT-15 (Colon Cancer); type: cell-based, human; conditions: Homo sapiens
HT29 = assay: NCI-60 growth inhibition: HT29 (Colon Cancer); type: cell-based, human; conditions: Homo sapiens, HT-29
SW-620 = assay: NCI-60 growth inhibition: SW-620 (Colon Cancer); type: cell-based, human; conditions: Homo sapiens
SF-268 = assay: NCI-60 growth inhibition: SF-268 (CNS Cancer); type: cell-based, human; conditions: Homo sapiens
SF-539 = assay: NCI-60 growth inhibition: SF-539 (CNS Cancer); type: cell-based, human; conditions: Homo sapiens
SNB-19 = assay: NCI-60 growth inhibition: SNB-19 (CNS Cancer); type: cell-based, human; conditions: Homo sapiens
SNB-75 = assay: NCI-60 growth inhibition: SNB-75 (CNS Cancer); type: cell-based, human; conditions: Homo sapiens
LOX IMVI = assay: NCI-60 growth inhibition: LOX IMVI (Melanoma); type: cell-based, human; conditions: Homo sapiens
MALME-3M = assay: NCI-60 growth inhibition: MALME-3M (Melanoma); type: cell-based, human; conditions: Homo sapiens
M14 = assay: NCI-60 growth inhibition: M14 (Melanoma); type: cell-based, human; conditions: Homo sapiens
MDA-MB-435 = assay: NCI-60 growth inhibition: MDA-MB-435 (Melanoma); type: cell-based, human; conditions: Homo sapiens
SK-MEL-2 = assay: NCI-60 growth inhibition: SK-MEL-2 (Melanoma); type: cell-based, human; conditions: Homo sapiens
SK-MEL-28 = assay: NCI-60 growth inhibition: SK-MEL-28 (Melanoma); type: cell-based, human; conditions: Homo sapiens
SK-MEL-5 = assay: NCI-60 growth inhibition: SK-MEL-5 (Melanoma); type: cell-based, human; conditions: Homo sapiens
UACC-257 = assay: NCI-60 growth inhibition: UACC-257 (Melanoma); type: cell-based, human; conditions: Homo sapiens
UACC-62 = assay: NCI-60 growth inhibition: UACC-62 (Melanoma); type: cell-based, human; conditions: Homo sapiens
IGROV1 = assay: NCI-60 growth inhibition: IGROV1 (Ovarian Cancer); type: cell-based, human; conditions: Homo sapiens, IGROV-1
OVCAR-3 = assay: NCI-60 growth inhibition: OVCAR-3 (Ovarian Cancer); type: cell-based, human; conditions: Homo sapiens
OVCAR-4 = assay: NCI-60 growth inhibition: OVCAR-4 (Ovarian Cancer); type: cell-based, human; conditions: Homo sapiens
OVCAR-5 = assay: NCI-60 growth inhibition: OVCAR-5 (Ovarian Cancer); type: cell-based, human; conditions: Homo sapiens
OVCAR-8 = assay: NCI-60 growth inhibition: OVCAR-8 (Ovarian Cancer); type: cell-based, human; conditions: Homo sapiens
786-0 = assay: NCI-60 growth inhibition: 786-0 (Renal Cancer); type: cell-based, human; conditions: Homo sapiens
A498 = assay: NCI-60 growth inhibition: A498 (Renal Cancer); type: cell-based, human; conditions: Homo sapiens
ACHN = assay: NCI-60 growth inhibition: ACHN (Renal Cancer); type: cell-based, human; conditions: Homo sapiens
CAKI-1 = assay: NCI-60 growth inhibition: CAKI-1 (Renal Cancer); type: cell-based, human; conditions: Homo sapiens
RXF 393 = assay: NCI-60 growth inhibition: RXF 393 (Renal Cancer); type: cell-based, human; conditions: Homo sapiens
SN12C = assay: NCI-60 growth inhibition: SN12C (Renal Cancer); type: cell-based, human; conditions: Homo sapiens
TK-10 = assay: NCI-60 growth inhibition: TK-10 (Renal Cancer); type: cell-based, human; conditions: Homo sapiens
UO-31 = assay: NCI-60 growth inhibition: UO-31 (Renal Cancer); type: cell-based, human; conditions: Homo sapiens
PC-3 = assay: NCI-60 growth inhibition: PC-3 (Prostate Cancer); type: cell-based, human; conditions: Homo sapiens
DU-145 = assay: NCI-60 growth inhibition: DU-145 (Prostate Cancer); type: cell-based, human; conditions: Homo sapiens
MCF7 = assay: NCI-60 growth inhibition: MCF7 (Breast Cancer); type: cell-based, human; conditions: Homo sapiens
MDA-MB-231/ATCC = assay: NCI-60 growth inhibition: MDA-MB-231/ATCC (Breast Cancer); type: cell-based, human; conditions: Homo sapiens
HS 578T = assay: NCI-60 growth inhibition: HS 578T (Breast Cancer); type: cell-based, human; conditions: Homo sapiens
BT-549 = assay: NCI-60 growth inhibition: BT-549 (Breast Cancer); type: cell-based, human; conditions: Homo sapiens
T-47D = assay: NCI-60 growth inhibition: T-47D (Breast Cancer); type: cell-based, human; conditions: Homo sapiens, T47D
MDA-MB-468 = assay: NCI-60 growth inhibition: MDA-MB-468 (Breast Cancer); type: cell-based, human; conditions: Homo sapiens
[1] = test system: MV4-11 cell line (myelomonocytic leukemia); conditions: MV4-11 cells; for LD50, 7AAD (μM) 24 h / LD50, Alamar blue (μM) 24 h / LD50, YOPRO (μM) 24 h: MMB-TDZD analogs (Table 2); for LD50: values in text
HCT-116 = assay: NCI-60 growth inhibition: HCT-116 (Colon Cancer); conditions: Homo sapiens, HCT-116
NCI-H522 = assay: NCI-60 growth inhibition: NCI-H522 (Non-Small-Cell Lung Cancer); conditions: Homo sapiens, NCI-H522
HL-60(TB) = assay: NCI-60 growth inhibition: HL-60(TB) (Leukemia); type: cell-based, human; conditions: Homo sapiens; HL-60(TB) (Leukemia); read-out: GI50
SR = assay: NCI-60 growth inhibition: SR (Leukemia); type: cell-based, human; conditions: Homo sapiens
U251 = assay: NCI-60 growth inhibition: U251 (CNS Cancer); type: cell-based, human; conditions: Homo sapiens, U-251
[2] = test system: human leukemia cell lines; assay: NCI-60 growth inhibition, leukemia cell lines

C=C1C(=O)O[C@H]2[C@H]1CC/C(COC(=O)NCc1ccc(Cn3c(=O)sn(-c4ccccc4)c3=O)cc1)=C\CC[C@@]1(C)O[C@@H]21 [BSK-197]
GI50 (CCRF-CEM): 830 nM
GI50 (K-562): 1800 nM
GI50 (MOLT-4): 2200 nM
GI50 (RPMI-8226): 2030 nM
GI50 (EKVX): 1850 nM
GI50 (HOP-92): 1820 nM
GI50 (NCI-H23): 3.55 µM
GI50 (NCI-H460): 3.67 µM
GI50 (COLO 205): 1770 nM
GI50 (HCT-15): 1940 nM
GI50 (HT29): 2150 nM
GI50 (SW-620): 1910 nM
GI50 (SF-268): 2.21 µM
GI50 (SF-539): 1570 nM
GI50 (SNB-19): 4.26 µM
GI50 (SNB-75): 2370 nM
GI50 (LOX IMVI): 1620 nM
GI50 (MALME-3M): 2090 nM
GI50 (M14): 1800 nM
GI50 (MDA-MB-435): 2070 nM
GI50 (SK-MEL-2): 2.39 µM
GI50 (SK-MEL-28): 1700 nM
GI50 (SK-MEL-5): 3.24 µM
GI50 (UACC-257): 1860 nM
GI50 (UACC-62): 2040 nM
GI50 (IGROV1): 2090 nM
GI50 (OVCAR-3): 1680 nM
GI50 (OVCAR-4): 2740 nM
GI50 (OVCAR-5): 2510 nM
GI50 (OVCAR-8): 2.83 µM
GI50 (786-0): 1810 nM
GI50 (A498): 3.91 µM
GI50 (ACHN): 1640 nM
GI50 (CAKI-1): 2490 nM
GI50 (RXF 393): 1750 nM
GI50 (SN12C): 2130 nM
GI50 (TK-10): 2210 nM
GI50 (UO-31): 1680 nM
GI50 (PC-3): 2360 nM
GI50 (DU-145): 1710 nM
GI50 (MCF7): 1590 nM
GI50 (MDA-MB-231/ATCC): 1710 nM
GI50 (HS 578T): 4.14 µM
GI50 (BT-549): 2140 nM
GI50 (T-47D): 1980 nM
GI50 (MDA-MB-468; MDA-MB-468): 1170 nM
LD50, 7AAD (μM) 24 h [1]: 1.26 µM
LD50, Alamar blue (μM) 24 h [1]: 2.02 µM
LD50, YOPRO (μM) 24 h [1]: 1.17 µM
LD50 [1]: 980 nM
GI50 (HCT-116): 1520 nM
GI50 (NCI-H522): 1740 nM

C=C1C(=O)O[C@H]2[C@H]1CC/C(COC(=O)NCc1ccc(Cn3c(=O)sn(CCCC)c3=O)cc1)=C\CC[C@@]1(C)O[C@@H]21 [BSK-230]
GI50 (CCRF-CEM): 650 nM
GI50 (HL-60(TB)): 1810 nM
GI50 (K-562): 890 nM
GI50 (MOLT-4): 1550 nM
GI50 (RPMI-8226): 1480 nM
GI50 (SR): 400 nM
GI50 (EKVX): 3320 nM
GI50 (HOP-92): 1290 nM
GI50 (NCI-H23): 4.19 µM
GI50 (NCI-H460): 5.92 µM
GI50 (COLO 205): 2000 nM
GI50 (HCT-15): 2020 nM
GI50 (HT29): 2080 nM
GI50 (SW-620): 1510 nM
GI50 (SF-268): 4.28 µM
GI50 (SF-539): 1680 nM
GI50 (SNB-19): 6.63 µM
GI50 (U251): 41.5 µM
GI50 (LOX IMVI): 1650 nM
GI50 (MALME-3M): 1600 nM
GI50 (M14): 1450 nM
GI50 (MDA-MB-435): 1650 nM
GI50 (SK-MEL-2): 4.53 µM
GI50 (SK-MEL-28): 1800 nM
GI50 (SK-MEL-5): 3.18 µM
GI50 (UACC-257): 2030 nM
GI50 (UACC-62): 1620 nM
GI50 (IGROV1): 1830 nM
GI50 (OVCAR-3): 1590 nM
GI50 (OVCAR-4): 1520 nM
GI50 (OVCAR-5): 1930 nM
GI50 (OVCAR-8): 3.64 µM
GI50 (786-0): 2000 nM
GI50 (A498): 3.28 µM
GI50 (ACHN): 1670 nM
GI50 (CAKI-1): 1640 nM
GI50 (RXF 393): 1570 nM
GI50 (SN12C): 1730 nM
GI50 (TK-10): 1810 nM
GI50 (UO-31): 1450 nM
GI50 (PC-3): 1750 nM
GI50 (DU-145): 1810 nM
GI50 (MCF7): 1870 nM
GI50 (MDA-MB-231/ATCC): 1800 nM
GI50 (HS 578T): 3.24 µM
GI50 (BT-549): 1560 nM
GI50 (T-47D): 2040 nM
GI50 (MDA-MB-468; MDA-MB-468 (Breast Cancer), read-out: GI50): 1730 nM
LD50, 7AAD (μM) 24 h [1]: 0.01 µM
LD50, Alamar blue (μM) 24 h [1]: 0.30 µM
LD50, YOPRO (μM) 24 h [1]: 0.02 µM
LD50 [1]: 20 nM
GI50 (HCT-116): 1360 nM
GI50 ([2]; Homo sapiens): 280 to 900 nM
potency against leukemia cell lines (GI50 <1.0) ([2]; NCI panel): highly potent against 3 of the 6 leukemia cell lines
GI50 (NCI-H522): 1190 nM
